For 29 molecules, inhibition results are on record in US8906925B2, “Pyrido[4,3-B]indoles containing rigid moieties” (Medivation Technologies, Inc., priority 2008, dated 2014).

For test [1], the target named is histamine receptor H1 (Homo sapiens, UniProt P35367). As to the kind of experiment: Histamine H1 radioligand binding ([3H]Pyrilamine). To be noted: read-out: Histamine Binding (1 μM) H1, percent inhibition of specific binding, 1 μM. As for the experimental part:
To evaluate in radioligand binding assays the activity of compounds of the invention, human recombinant histamine H1 receptor expressed in Chinese hamster ovary (CHO) cells (De Backer, M. D. et al., Biochem. Biophys. Res. Comm. 197(3):1601, 1993) in a modified Tris-HCl buffer (50 mM Tris-HCl, pH 7.4, 2 mM MgCl2, 100 mM NaCl, 250 mM Sucrose) was used. Compounds of the invention were incubated with 1.2 nM [^3H]Pyrilamine for 180 min. at 25° C. Non-specific binding was estimated in the presence of 1 μM pyrilamine. Receptor proteins were filtered and washed, the filters were then counted to determine [^3H]Pyrilamine specifically bound. Compounds were screened at 1 μM or lower, using 1% DMSO as vehicle. Biochemical assay results are presented as the percent inhibition of specific binding in Table 8.

Test [2] addresses human dopamine D2L receptor (Homo sapiens, UniProt P14416). Kind of test: Dopamine D2L radioligand binding ([3H]Spiperone). To be noted: compound at 1 μM. The source says: Non-specific binding was estimated in the presence of […] Haloperidol. Receptor proteins were filtered and washed, the filters were then counted to determine [^3H]Spiperone specifically bound. […] Biochemical assay results are presented as the percent inhibition of specific binding in Table 9.

Setting [3] is: […] [3H]Spiperone, read-out: Inhibition of ligand binding, Dopamine D2L (percent inhibition of specific binding).
[4] abbreviates: percent inhibition of specific binding, read-out: Inhibition of ligand binding, Dopamine D2L.

Read-outs that look alike come from different tables or passages of the source.

Chain of histamine receptor H1 (P35367 whole entry): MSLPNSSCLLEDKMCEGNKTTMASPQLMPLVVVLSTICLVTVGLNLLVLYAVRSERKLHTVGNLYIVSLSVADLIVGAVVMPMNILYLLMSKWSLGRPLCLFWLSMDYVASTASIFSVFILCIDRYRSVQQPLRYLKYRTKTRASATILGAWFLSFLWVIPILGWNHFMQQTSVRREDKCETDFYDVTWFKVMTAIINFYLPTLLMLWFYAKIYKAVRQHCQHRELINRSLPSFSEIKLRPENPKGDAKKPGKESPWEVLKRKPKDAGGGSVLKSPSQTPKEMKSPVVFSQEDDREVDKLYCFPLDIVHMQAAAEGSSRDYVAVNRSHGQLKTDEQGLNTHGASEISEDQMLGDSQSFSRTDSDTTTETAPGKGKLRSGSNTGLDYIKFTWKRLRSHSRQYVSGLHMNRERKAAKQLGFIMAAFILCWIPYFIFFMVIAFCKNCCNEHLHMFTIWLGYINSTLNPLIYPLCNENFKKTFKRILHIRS
Chain of human dopamine D2L receptor (P14416 whole entry): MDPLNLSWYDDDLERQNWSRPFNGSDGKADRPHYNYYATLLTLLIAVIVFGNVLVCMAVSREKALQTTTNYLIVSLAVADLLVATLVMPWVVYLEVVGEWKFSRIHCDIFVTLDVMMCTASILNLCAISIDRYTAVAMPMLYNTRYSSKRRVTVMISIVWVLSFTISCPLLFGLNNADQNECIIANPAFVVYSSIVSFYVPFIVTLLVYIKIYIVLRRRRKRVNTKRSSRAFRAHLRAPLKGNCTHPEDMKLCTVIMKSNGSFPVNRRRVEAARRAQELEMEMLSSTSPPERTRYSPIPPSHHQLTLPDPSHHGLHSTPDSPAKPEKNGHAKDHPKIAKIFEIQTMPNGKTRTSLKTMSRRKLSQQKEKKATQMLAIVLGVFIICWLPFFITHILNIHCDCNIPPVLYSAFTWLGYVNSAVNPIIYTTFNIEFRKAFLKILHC

The term inhibition denotes the relative decrease from the control value, in per cent. With `C/C(=C\n1c2c(c3cc(Cl)ccc31)CN(C)CC2)c1ccnc(C)c1` [compound 394, (E)-8-chloro-2-methyl-5-(2-(2-methylpyridin-4-yl)prop-1-enyl)-2,3,4,5-tetrahydro-1H-pyrido[4,3-b]indole], the inhibition at 1 µM was determined as 75% in test [1] and 99% in test [2] (setting [3]). For `C/C(=C\n1c2c(c3cc(Cl)ccc31)CNCC2)c1ccncc1` [compound 402, (E)-8-chloro-5-(2-(pyridin-4-yl)prop-1-enyl)-2,3,4,5-tetrahydro-1H-pyrido[4,3-b]indole], the inhibition at 1 µM amounted to 15% in test [1] and 87% in test [2] (setting [3]).

On to `Cc1ccc2c(c1)c1c(n2C(C)C(O)c2ccccc2)CCN(C)C1` (stereo not drawn) [Compound No. 468, 2-(2,8-dimethyl-3,4-dihydro-1H-pyrido[4,3-b]indol-5(2H)-yl)-1-phenylpropan-1-ol], for which the inhibition at 1 µM in test [1] came out at 82%; in test [2] (setting [3]), 12%. On the same counts, the results for `C/C(=C/n1c2c(c3cc(Cl)ccc31)CN(C)CC2)C1CCCCC1` [Compound 369, (Z)-8-chloro-5-(2-cyclohexylprop-1-enyl)-2-methyl-2,3,4,5-tetrahydro-1H-pyrido[4,3-b]indole] are 29% and 64%.

Turning to `C/C(=C\n1c2c(c3cc(Cl)ccc31)CN(C)[C@H](C)C2)c1ccncc1` [compound 392, (R,E)-8-chloro-2,3-dimethyl-5-(2-(pyridin-4-yl)prop-1-enyl)-2,3,4,5-tetrahydro-1H-pyrido[4,3-b]indole], the results for the inhibition at 1 µM in test [1] and in test [2] (setting [3]) were 84% and 99%, respectively. On the same counts, the results for `C/C(=C\n1c2c(c3cc(Cl)ccc31)CN(C)CC2)c1ccsc1` [compound 388, (E)-8-chloro-2-methyl-5-(2-(thiophen-3-yl)prop-1-enyl)-2,3,4,5-tetrahydro-1H-pyrido[4,3-b]indole] are 100% and 99%.

In the case of `Cc1ccc2c(c1)c1c(n2C#Cc2ccc(C3CC3)nc2)CCN(C)C1` [Compound No. 496, 5-((6-cyclopropylpyridin-3-yl)ethynyl)-2,8-dimethyl-2,3,4,5-tetrahydro-1H-pyrido[4,3-b]indole], the inhibition at 1 µM was 15% in test [1] and 25% in test [2] (setting [3]). `Cc1ccc2c(c1)c1c(n2C#Cc2cncn2C)CCN(C)C1` [Compound No. 497, 2,8-dimethyl-5-((1-methyl-1H-imidazol-5-yl)ethynyl)-2,3,4,5-tetrahydro-1H-pyrido[4,3-b]indole]: the values for the inhibition at 1 µM in test [1] and in test [2] (setting [3]) were 17% and 14%, respectively. Taken in the same sequence, the figures for `C/C(=C\n1c2c(c3cc(C)ccc31)CNCC2)c1ccncc1` [compound 401, (E)-8-methyl-5-(2-(pyridin-4-yl)prop-1-enyl)-2,3,4,5-tetrahydro-1H-pyrido[4,3-b]indole] were 8% and 57%. On the same counts, the results for `C/C(=C/n1c2c(c3cc(Cl)ccc31)CN(C)CC2)c1ccncc1` [compound 384, (Z)-8-chloro-2-methyl-5-(2-(pyridin-4-yl)prop-1-enyl)-2,3,4,5-tetrahydro-1H-pyrido[4,3-b]indole] are 66% and 91%. As for `C=CCN1CCc2c(c3cc(C)ccc3n2/C=C(\C)c2ccncc2)C1` [compound 405, (E)-2-allyl-8-methyl-5-(2-(pyridin-4-yl)prop-1-enyl)-2,3,4,5-tetrahydro-1H-pyrido[4,3-b]indole], the inhibition at 1 µM was 67% in test [1] and 88% in test [2] (setting [3]). On the same counts, the results for `C/C(=C\n1c2c(c3cc(N4CCN(C)CC4)ccc31)CN(C)CC2)c1ccncc1` [compound 437, (E)-2-methyl-8-(4-methylpiperazin-1-yl)-5-(2-(pyridin-4-yl)prop-1-enyl)-2,3,4,5-tetrahydro-1H-pyrido[4,3-b]indole] are 44% and 15%. On the same counts, the results for `C=C(Cn1c2c(c3cc(C)ccc31)CN(C)CC2)c1cnccn1` [Compound No. 364, 2,8-dimethyl-5-(2-(pyrazin-2-yl)allyl)-2,3,4,5-tetrahydro-1H-pyrido[4,3-b]indole] are 95% and 27%. On the same counts, the results for `CNc1ccc2c(c1)c1c(n2/C=C(\C)c2ccncc2)CCN(C)C1` [compound 433, (E)-N,2-dimethyl-5-(2-(pyridin-4-yl)prop-1-enyl)-2,3,4,5-tetrahydro-1H-pyrido[4,3-b]indol-8-amine] are 13% and 61%.

Take `C/C(=C\n1c2c(c3cc(Cl)ccc31)CN(C)CC2)c1cncnc1` [Compound 346, (E)-8-chloro-2-methyl-5-(2-(pyrimidin-5-yl)prop-1-enyl)-2,3,4,5-tetrahydro-1H-pyrido[4,3-b]indole]: the inhibition at 1 µM in test [1] turned out to be 17%; in test [2] (setting [4]) it was 26%. In the case of `CC/C(=C\n1c2c(c3cc(C)ccc31)CN(C)CC2)c1ccncc1` [Compound 283, (E)-2,8-dimethyl-5-(2-(pyridin-4-yl)but-1-enyl)-2,3,4,5-tetrahydro-1H-pyrido[4,3-b]indole], the figures for the inhibition at 1 µM in test [1] and in test [2] (setting [4]) were 23% and 66%, respectively. As for `COc1c(F)cc(/C(C)=C/n2c3c(c4cc(C)ccc42)CN(C)CC3)cc1F` [compound 456, (E)-5-(2-(3,5-difluoro-4-methoxyphenyl)prop-1-enyl)-2,8-dimethyl-2,3,4,5-tetrahydro-1H-pyrido[4,3-b]indole], the values for the inhibition at 1 µM in test [1] and in test [2] (setting [3]) were 17% and 80%, respectively.

`C/C(=C\n1c2c(c3cc(C)ccc31)CN(C)CC2)c1cnc(C)cn1` [compound 386, (E)-2,8-dimethyl-5-(2-(5-methylpyrazin-2-yl)prop-1-enyl)-2,3,4,5-tetrahydro-1H-pyrido[4,3-b]indole]: the inhibition at 1 µM in test [1] was found to be 8%; in test [2] (setting [3]) it was 25%. On the same counts, the results for `CNc1ccc2c(c1)c1c(n2/C=C(\C)c2ccc(F)cc2)CCN(C)C1` [compound 431, (E)-5-(2-(4-fluorophenyl)prop-1-enyl)-N,2-dimethyl-2,3,4,5-tetrahydro-1H-pyrido[4,3-b]indol-8-amine] are 33% and 80%. Taken in the same sequence, the figures for `Cc1ccc2c(c1)c1c(n2/C=C(\F)c2ccncc2)CCN(C)C1` [compound 426, (Z)-5-(2-fluoro-2-(pyridin-4-yl)vinyl)-2,8-dimethyl-2,3,4,5-tetrahydro-1H-pyrido[4,3-b]indole] were 50% and 32%. As to `CC(C)=C(Cn1c2c(c3cc(C)ccc31)CN(C)CC2)c1ccncc1` [Compound No. 358, 2,8-dimethyl-5-(3-methyl-2-(pyridin-4-yl)but-2-enyl)-2,3,4,5-tetrahydro-1H-pyrido[4,3-b]indole], the inhibition at 1 µM worked out at 47% in test [1] and 14% in test [2] (setting [3]). On to `C/C(=C\n1c2c(c3cc(C)ccc31)CN(C)CC2)c1cncnc1` [Compound 293, (E)-2,8-dimethyl-5-(2-(pyrimidin-5-yl)prop-1-enyl)-2,3,4,5-tetrahydro-1H-pyrido[4,3-b]indole], for which the inhibition at 1 µM in test [1] turned out to be 9%; in test [2] (setting [4]) it was 31%. For `C/C(=C\n1c2c(c3cc(C)ccc31)CN(C)[C@H](C)C2)c1ccncc1` [compound 390, (R,E)-2,3,8-trimethyl-5-(2-(pyridin-4-yl)prop-1-enyl)-2,3,4,5-tetrahydro-1H-pyrido[4,3-b]indole], the inhibition at 1 µM turned out to be 49% in test [1] and 97% in test [2] (setting [3]). Regarding `Cc1ccc2c(c1)c1c(n2/C(=C(/F)c2ccc(C)nc2)c2ccc(C)nc2)CCN(C)C1` [compound 419], the inhibition at 1 µM in test [1] came to 52%; in test [2] (setting [3]), 20%.

For the molecule `C/C(=C\n1c2c(c3cc(Cl)ccc31)CN(CCCC(O)c1ccc(F)cc1)CC2)c1ccncc1` (stereo not drawn) [compound 395, (E)-4-(8-chloro-5-(2-(pyridin-4-yl)prop-1-enyl)-3,4-dihydro-1H-pyrido[4,3-b]indol-2(5H)-yl)-1-(4-fluorophenyl)butan-1-ol], the inhibition at 1 µM stood at 102% in test [1] and 99% in test [2] (setting [3]).

On to `CO/C(=C(/C)n1c2c(c3cc(C)ccc31)CN(C)CC2)c1ccncc1` [compound 418, (Z)-5-(1-methoxy-1-(pyridin-4-yl)prop-1-en-2-yl)-2,8-dimethyl-2,3,4,5-tetrahydro-1H-pyrido[4,3-b]indole], for which the inhibition at 1 µM in test [1] came out at 33%; in test [2] (setting [3]) it was 14%.

In the case of `Cc1ccc2c(c1)c1c(n2/C=C(\F)c2ccc(Br)nc2)CCN(C)C1` [compound 416, (Z)-5-(2-(6-bromopyridin-3-yl)-2-fluorovinyl)-2,8-dimethyl-2,3,4,5-tetrahydro-1H-pyrido[4,3-b]indole], the values for the inhibition at 1 µM in test [1] and in test [2] (setting [3]) were 91% and 20%, respectively. Taken in the same sequence, the figures for `C/C(=C\n1c2c(c3cc(C)ccc31)CN(C)CC2)c1ccc(C(=O)N(C)C)cc1` [compound 436] were 12% and 69%.

In the case of `C/C(=C\n1c2c(c3cc(C)ccc31)CN(C)CC2)c1cc(Cl)cc(Cl)c1` [compound 410, (E)-5-(2-(3,5-dichlorophenyl)prop-1-enyl)-2,8-dimethyl-2,3,4,5-tetrahydro-1H-pyrido[4,3-b]indole], the inhibition at 1 µM in test [2] (setting [3]) is 47%.
